From ChEMBL document CHEMBL1201862, “PubChem BioAssay data set” (2004)
One block for each compound: values may come before it. The source made the active and inactive calls.

Key:
[1] = molecular target: Potassium voltage-gated channel subfamily KQT member 2 (Rattus norvegicus, UniProt O88943); assay: KCNQ2 potassium channel inhibitors, dose response, cell-based, automated electrophysiology, set II, rat KCNQ2 (AID 588637); assay type: functional
INS1 = assay: beta cell apoptosis inhibitors, cytokine rescue, dose response, luminescence, retest (AID 449756); assay type: functional, cell-based; details: Rattus norvegicus;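 also: cell death triggered by IL-1 beta plus TNF-alpha plus IFN-gamma mixture; protective hits raise ATP signal compared with cytokine alone wells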
[2] = molecular target: T1, Mitochondrial peptide methionine sulfoxide reductase (Bos taurus, UniProt P54149); assay type: functional;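 also: absorbance read-out, biochemical high-throughput dose-response screen for MsrA inhibitors, confirmatory; recombinant bovine MsrA coupled to E. coli TrxB with NADPH and selenocystamine; potency is for inhibitors of MsrA activity on DMSO substrate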
T1 sequence (P54149 whole entry): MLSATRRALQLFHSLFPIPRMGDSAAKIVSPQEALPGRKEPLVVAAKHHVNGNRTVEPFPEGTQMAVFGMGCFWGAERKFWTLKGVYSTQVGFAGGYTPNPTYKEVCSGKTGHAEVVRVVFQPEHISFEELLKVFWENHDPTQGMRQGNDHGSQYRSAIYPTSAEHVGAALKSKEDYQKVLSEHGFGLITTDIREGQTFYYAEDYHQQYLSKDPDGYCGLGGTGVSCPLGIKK

[3] = molecular target: T2, ATP-dependent translocase ABCB1 (Homo sapiens, UniProt P08183); assay: ABCB1 efflux inhibitor potency, dose response, Jurkat-DNR cells, JC-1, flow cytometry, set 2 (AID 504569); assay type: functional; details: read-out: EC50_MICROM_;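 also: potency of pump inhibitors that raise cellular JC-1 green fluorescence up to the nicardipine level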
T2 sequence (P08183 whole entry): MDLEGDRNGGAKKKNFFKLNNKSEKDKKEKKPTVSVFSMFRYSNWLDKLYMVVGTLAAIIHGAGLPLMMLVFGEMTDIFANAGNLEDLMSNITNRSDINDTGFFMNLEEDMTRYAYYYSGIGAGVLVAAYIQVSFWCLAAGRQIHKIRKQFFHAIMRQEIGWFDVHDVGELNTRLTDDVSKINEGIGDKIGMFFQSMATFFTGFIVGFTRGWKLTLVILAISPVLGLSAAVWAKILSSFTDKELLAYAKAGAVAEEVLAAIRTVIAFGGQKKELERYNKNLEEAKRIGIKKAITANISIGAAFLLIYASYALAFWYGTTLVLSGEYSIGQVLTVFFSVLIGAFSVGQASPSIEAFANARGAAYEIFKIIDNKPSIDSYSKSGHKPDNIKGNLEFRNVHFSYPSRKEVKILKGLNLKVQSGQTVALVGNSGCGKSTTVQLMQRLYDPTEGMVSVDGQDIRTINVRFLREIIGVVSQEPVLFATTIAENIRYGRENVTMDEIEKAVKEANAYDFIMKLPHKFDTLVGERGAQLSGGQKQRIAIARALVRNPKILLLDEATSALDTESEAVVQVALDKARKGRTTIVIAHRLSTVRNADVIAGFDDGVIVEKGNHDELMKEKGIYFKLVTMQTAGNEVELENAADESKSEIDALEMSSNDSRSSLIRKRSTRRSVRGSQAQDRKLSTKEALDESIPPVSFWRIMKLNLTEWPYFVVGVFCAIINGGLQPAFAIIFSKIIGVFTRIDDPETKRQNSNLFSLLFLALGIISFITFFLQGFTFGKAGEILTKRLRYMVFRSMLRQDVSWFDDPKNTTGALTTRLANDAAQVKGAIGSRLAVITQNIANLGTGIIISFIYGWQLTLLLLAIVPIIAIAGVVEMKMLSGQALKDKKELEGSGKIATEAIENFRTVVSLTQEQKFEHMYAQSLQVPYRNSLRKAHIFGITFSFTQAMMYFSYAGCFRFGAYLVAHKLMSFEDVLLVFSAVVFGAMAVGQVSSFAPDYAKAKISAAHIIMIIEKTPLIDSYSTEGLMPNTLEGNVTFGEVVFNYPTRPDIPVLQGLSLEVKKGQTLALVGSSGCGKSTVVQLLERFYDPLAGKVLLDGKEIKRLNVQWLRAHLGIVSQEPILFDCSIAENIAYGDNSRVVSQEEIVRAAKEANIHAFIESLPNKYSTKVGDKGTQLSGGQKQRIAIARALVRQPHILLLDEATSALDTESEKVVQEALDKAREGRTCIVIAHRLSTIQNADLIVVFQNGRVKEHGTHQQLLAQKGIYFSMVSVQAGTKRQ

H9c2 = assay: cells; assay type: functional, cell-based; details: Rattus norvegicus, H9c2, Myocardium;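 also: confirmatory concentration-response retest of ultra-high-throughput screening hits for modulation of myocardial damage; cell death induced by hydrogen peroxide oxidative stress; compound pretreatment for 60 min then peroxide exposure for 2 h; potency is for protecting the cells against peroxide damage rather than for killing them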
[4] = molecular target: T2, ATP-dependent translocase ABCB1; assay: ABCG2 efflux pump inhibitor potency, dose response, Ig-MXP3 cells, JC-1, flow cytometry, set 2 (AID 504566); assay type: functional; details: read-out: EC50_MICROM_;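 also: flow cytometry median green fluorescence of retained JC-1 dye; potency of efflux pump inhibition measured as rising substrate retention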
[5] = NIH/3T3 fibroblast cytotoxicity, dose response, cytotoxicity control for T. cruzi growth inhibitor project, cell-based, cherry-pick samples, set 2 (AID 651817); assay type: functional; details: NIH3T3

Chain of Potassium voltage-gated channel subfamily KQT member 2 (O88943 whole entry): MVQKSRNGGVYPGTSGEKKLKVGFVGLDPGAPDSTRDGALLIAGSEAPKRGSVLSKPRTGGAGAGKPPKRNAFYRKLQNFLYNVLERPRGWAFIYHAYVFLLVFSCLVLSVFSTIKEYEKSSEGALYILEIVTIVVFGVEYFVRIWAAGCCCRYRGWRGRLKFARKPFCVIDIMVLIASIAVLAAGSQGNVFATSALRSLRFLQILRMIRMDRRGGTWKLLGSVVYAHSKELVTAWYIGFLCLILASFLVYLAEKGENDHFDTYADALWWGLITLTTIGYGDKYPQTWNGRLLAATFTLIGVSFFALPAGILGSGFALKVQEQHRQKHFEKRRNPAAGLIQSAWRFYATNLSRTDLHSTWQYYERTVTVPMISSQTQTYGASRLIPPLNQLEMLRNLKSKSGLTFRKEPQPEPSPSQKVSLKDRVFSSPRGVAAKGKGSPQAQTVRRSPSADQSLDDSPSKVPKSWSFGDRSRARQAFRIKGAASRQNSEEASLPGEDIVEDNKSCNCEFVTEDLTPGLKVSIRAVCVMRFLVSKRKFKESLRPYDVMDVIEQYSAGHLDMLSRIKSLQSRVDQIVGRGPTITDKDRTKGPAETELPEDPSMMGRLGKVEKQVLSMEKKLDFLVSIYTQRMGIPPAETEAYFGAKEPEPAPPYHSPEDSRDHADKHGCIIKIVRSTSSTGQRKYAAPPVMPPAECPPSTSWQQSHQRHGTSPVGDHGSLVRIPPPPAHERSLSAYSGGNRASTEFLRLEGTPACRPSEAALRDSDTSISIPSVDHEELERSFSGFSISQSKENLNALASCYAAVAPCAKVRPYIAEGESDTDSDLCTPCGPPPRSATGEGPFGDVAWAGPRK

SMILES: CN1/C(=C\C(=S)NC(=O)c2cccc(Br)c2)C(C)(C)c2ccccc21
IC50 [1]: 4.27 µM (active) | AC50 (INS1): 3.96 µM (active)

IC50 [2]: 155 µM (inactive)
SMILES: Cc1cc(C(=O)N/N=C/C=C/c2ccc([N+](=O)[O-])cc2)[nH]n1

SMILES: COc1ccccc1-c1cc2nc(-c3ccccc3)cc(N3CCN(C(=O)c4ccoc4)CC3)n2n1
EC50 [3]: 2.7 µM (active) | IC50 (H9c2): > 79 µM (inactive) | EC50 [4]: 0.34 µM (active)

SMILES: C[C@H]1CN([C@@H](C)CO)C(=O)c2cccc(NC(=O)Nc3ccc(C(F)(F)F)cc3)c2O[C@H]1CN(C)Cc1ccc(Cl)c(Cl)c1
AC50 [5]: 13.6 µM (active)
